US7838468B2, “High molecular weight polyamine salts as clay stabilizing agents” (Baker Hughes Incorporated, priority 2003, dated 2010)

Experiment: permeability of Bandera sandstone (clay stabilization)
Settings: API standard brine and tap water, 150° F. (66° C.)
Method: FIG. 1 is a graph of the effect of TMAC and Tap Water on the permeability of Bandera Sandstone at 150° F. (66° C.);
FIG. 2 is a graph of the effect of A4819 and Tap Water on the permeability of Bandera Sandstone at 150° F. (66° C.); and
FIG. 3 is a graph of the effect of A4840 and Tap Water on the permeability of Bandera Sandstone at 150° F. (66° C.).
The products TMAC (tetramethylammonium chloride), A4819 and A4840 were tested on an API standard brine and tap water on Bandera sandstone for permeability.

C[N+](C)(C)C.[Cl-] [TMAC, tetramethylammonium chloride]
maintaining permeability (measure that the clay is stable): performed well
